Results reported in patent US8329904B2, “Azacyclic derivatives” (Hoffmann-La Roche Inc., priority 2009, dated 2012).

Each compound was assayed against T1, human HSL (Homo sapiens, UniProt Q05469) (assay: Human Hormone-Sensitive Lipase (HSL) Enzyme Inhibition Assay). Details: colorimetric assay, 2,3-dimercapto-1-propanol tributyrate (DMPT) substrate, 37° C. for 20 minutes, absorbance at 405 nm; read-out: HSL hum IC50.
T1 construct: overlapping PCR to generate a full length human HSL ORF with a 3′-His6 tag; His6 (C); made in house; host or cells: High 5 insect cells (baculovirus, pFast-BAC)
T1 sequence (Q05469 1-1076): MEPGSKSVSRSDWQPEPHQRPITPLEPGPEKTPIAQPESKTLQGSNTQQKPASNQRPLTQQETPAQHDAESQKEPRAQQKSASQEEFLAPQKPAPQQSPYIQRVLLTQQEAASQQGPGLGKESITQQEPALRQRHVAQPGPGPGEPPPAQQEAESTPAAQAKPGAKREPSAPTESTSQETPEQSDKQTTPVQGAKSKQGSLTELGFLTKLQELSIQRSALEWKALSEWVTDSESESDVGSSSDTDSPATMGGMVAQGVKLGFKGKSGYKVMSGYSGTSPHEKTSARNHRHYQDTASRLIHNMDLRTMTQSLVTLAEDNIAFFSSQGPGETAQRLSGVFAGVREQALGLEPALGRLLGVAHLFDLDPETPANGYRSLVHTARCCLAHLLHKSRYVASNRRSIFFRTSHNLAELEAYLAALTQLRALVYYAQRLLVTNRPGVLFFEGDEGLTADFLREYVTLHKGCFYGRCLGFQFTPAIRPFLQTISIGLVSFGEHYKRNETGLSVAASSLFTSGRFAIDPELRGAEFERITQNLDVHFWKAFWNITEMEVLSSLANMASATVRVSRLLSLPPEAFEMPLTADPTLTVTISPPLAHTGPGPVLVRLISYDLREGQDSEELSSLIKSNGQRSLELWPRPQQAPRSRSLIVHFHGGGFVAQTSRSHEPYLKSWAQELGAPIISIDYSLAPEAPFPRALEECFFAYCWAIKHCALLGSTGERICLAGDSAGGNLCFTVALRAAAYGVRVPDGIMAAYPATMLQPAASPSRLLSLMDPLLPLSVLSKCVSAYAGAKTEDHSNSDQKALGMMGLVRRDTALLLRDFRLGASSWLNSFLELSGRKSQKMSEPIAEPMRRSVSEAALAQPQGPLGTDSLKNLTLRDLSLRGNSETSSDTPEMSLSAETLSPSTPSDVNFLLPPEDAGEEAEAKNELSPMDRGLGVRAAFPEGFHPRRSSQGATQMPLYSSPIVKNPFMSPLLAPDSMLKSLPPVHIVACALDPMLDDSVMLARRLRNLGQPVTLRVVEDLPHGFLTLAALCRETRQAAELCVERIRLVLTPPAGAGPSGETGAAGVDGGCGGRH
Assay type: biochemical
Procedure, shortened: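 Colorimetric thioester hydrolysis: compounds in DMSO series mixed with DMPT (1.5 mM) in MOPS pH 7.2 with BSA, then baculovirus-expressed His6-tagged full-length human HSL added, 37° C, 20 min. DTNB plus detergents added, 15 min room temperature, absorbance at 405 nm.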

| Compound | IC50 |
| --- | --- |
| CCC(C)c1ccc(N2CCC3(CCN(S(=O)(=O)N4CCOCC4)CC3)C2=O)cc1 (centres unmarked) [Example 44, 2-(4-sec-Butyl-phenyl)-8-(morpholine-4-sulfonyl)-2,8-diaza-spiro[4.5]decan-1-one] | 100 nM |
| CCCCN(CC)C(=O)N1CCC2(CC1)CCN(c1ccc(OC(F)(F)F)cc1)C2=O [Example 303, 1-Oxo-2-(4-trifluoromethoxy-phenyl)-2,8-diaza-spiro[4.5]decane-8-carboxylic acid butyl-ethyl-amide] | 140 nM |
| Cc1noc(C)c1S(=O)(=O)N1CCC2(CCN(c3ccc(C(F)(F)F)cc3)C2=O)CC1 [Example 164, 8-(3,5-Dimethyl-isoxazole-4-sulfonyl)-2-(4-trifluoromethyl-phenyl)-2,8-diaza-spiro[4.5]decan-1-one] | 280 nM |
| CC(C(=O)N1CCC2(CC1)CCN(c1ccc(OC(F)(F)F)cc1)C2=O)c1ccccc1 (centres unmarked) [Example 222, 8-(2-Phenyl-propionyl)-2-(4-trifluoromethoxy-phenyl)-2,8-diaza-spiro[4.5]decan-1-one] | 100 nM |
| O=C1N(c2ccc(OC(F)(F)F)cc2)CCC12CCN(S(=O)(=O)N1CCCC1)CC2 [Example 182, 8-(Pyrrolidine-1-sulfonyl)-2-(4-trifluoromethoxy-phenyl)-2,8-diaza-spiro[4.5]decan-1-one] | 90 nM |
| CN(Cc1ccccc1)C(=O)N1CCC2(CC1)CCN(c1ccc(OC(F)(F)F)cc1)C2=O [Example 278, 1-Oxo-2-(4-trifluoromethoxy-phenyl)-2,8-diaza-spiro[4.5]decane-8-carboxylic acid benzyl-methyl-amide] | 120 nM |
| O=C1N(c2ccc(C(F)(F)F)c(Cl)c2)CCC12CCN(S(=O)(=O)c1ccccc1Cl)CC2 [Example 227, 8-(2-Chloro-benzenesulfonyl)-2-(3-chloro-4-trifluoromethyl-phenyl)-2,8-diaza-spiro[4.5]decan-1-one] | 80 nM |
| CC(C)(C)CC(=O)N1CCC2(CC1)CCN(c1ccc(CC(F)(F)F)cc1)C2=O [Example 40, 8-(3,3-Dimethyl-butyryl)-2-[4-(2,2,2-trifluoro-ethyl)-phenyl]-2,8-diaza-spiro[4.5]decan-1-one] | 80 nM |
| Cc1nnc(Cc2ccc(N3CCC4(CCN(S(=O)(=O)c5ccccc5Cl)CC4)C3=O)cc2)o1 [Example 137, 8-(2-Chloro-benzenesulfonyl)-2-[4-(5-methyl-[1,3,4]oxadiazol-2-ylmethyl)-phenyl]-2,8-diaza-spiro[4.5]decan-1-one] | 220 nM |
| O=C1N(c2ccc(C(O)C(F)(F)F)cc2)CCC12CCN(S(=O)(=O)C1CC1)CC2 (centres unmarked) [Example 170, 8-(Cyclopropylsulfonyl)-2-(4-(2,2,2-trifluoro-1-hydroxyethyl)phenyl)-2,8-diazaspiro[4.5]decan-1-one] | 320 nM |
| Cc1ccc(S(=O)(=O)N2CCC3(CCN(c4ccc(OC(F)(F)F)cc4)C3=O)CC2)nn1 [Example 204, 8-(6-Methyl-pyridazine-3-sulfonyl)-2-(4-trifluoromethoxy-phenyl)-2,8-diaza-spiro[4.5]decan-1-one] | 140 nM |
| CC(C)(C)CC(=O)N1CCC2(CC1)CCN(c1ccc(OCC(F)(F)F)nc1)C2=O [Example 122, 8-(3,3-Dimethyl-butyryl)-2-[6-(2,2,2-trifluoro-ethoxy)-pyridin-3-yl]-2,8-diaza-spiro[4.5]decan-1-one] | 540 nM |
| CCc1ccc(N2CCC3(CCN(S(=O)(=O)c4ccccc4N4CCCC4=O)CC3)C2=O)cc1 [Example 143, 2-(4-Ethyl-phenyl)-8-[2-(2-oxo-pyrrolidin-1-yl)-benzenesulfonyl]-2,8-diaza-spiro[4.5]decan-1-one] | 170 nM |
| O=C1N(c2ccc(OC(F)(F)F)cc2)CCC12CCN(S(=O)(=O)c1ccc(F)cc1C(F)(F)F)CC2 [Example 76, 8-(4-Fluoro-2-trifluoromethyl-benzenesulfonyl)-2-(4-trifluoromethoxy-phenyl)-2,8-diaza-spiro[4.5]decan-1-one] | 190 nM |
| O=C1N(CCc2cccc(Cl)c2)CCC12CCN(S(=O)(=O)c1ccccc1Cl)CC2 [Example 247, 8-(2-Chloro-benzenesulfonyl)-2-[2-(3-chloro-phenyl)-ethyl]-2,8-diaza-spiro[4.5]decan-1-one] | 80 nM |

These reach a lower IC50. Values come first.

| IC50 | Compound |
| --- | --- |
| 60 nM | CCN(C(=O)N1CCC2(CC1)CCN(c1ccc(OC(F)(F)F)cc1)C2=O)c1ccc(OC(F)(F)F)cc1 [Example 311, 1-Oxo-2-(4-trifluoromethoxy-phenyl)-2,8-diaza-spiro[4.5]decane-8-carboxylic acid ethyl-(4-trifluoromethoxy-phenyl)-amide] |
| 60 nM | O=C1N(c2ccc3c(c2)OC(F)(F)O3)CCC12CCN(S(=O)(=O)c1ccccc1Cl)CC2 [Example 228, 8-(2-Chloro-benzenesulfonyl)-2-(2,2-difluoro-benzo[1,3]-dioxol-5-yl)-2,8-diaza-spiro[4.5]decan-1-one] |
| 60 nM | CCc1ccc(N2CCC3(CCN(S(=O)(=O)c4ccc(C)s4)CC3)C2=O)cc1 [Example 41, 2-(4-Ethyl-phenyl)-8-(5-methyl-thiophene-2-sulfonyl)-2,8-diaza-spiro[4.5]decan-1-one] |
| 60 nM | CN(C(=O)N1CCC2(CC1)CCN(c1ccc(OC(F)(F)F)cc1)C2=O)c1ccc(Cl)cc1 [Example 300, 1-Oxo-2-(4-trifluoromethoxy-phenyl)-2,8-diaza-spiro[4.5]decane-8-carboxylic acid (4-chloro-phenyl)-methyl-amide] |
| 50 nM | COC(CS(=O)(=O)N1CCC2(CCN(c3ccc(OC(F)(F)F)cc3)C2=O)CC1)C1CC1 (centres unmarked) [Example 209, 8-(2-Cyclopropyl-2-methoxy-ethanesulfonyl)-2-(4-trifluoromethoxy-phenyl)-2,8-diaza-spiro[4.5]decan-1-one] |
| 50 nM | CCc1ccc(N2CCC3(CCN(S(=O)(=O)c4cccs4)CC3)C2=O)cc1 [Example 29, 2-(4-Ethyl-phenyl)-8-(thiophene-2-sulfonyl)-2,8-diaza-spiro[4.5]decan-1-one] |
| 50 nM | O=C1N(c2ccc(OCC(F)(F)F)nc2)CCC12CCN(S(=O)(=O)c1ccccc1Cl)CC2 [Example 119, 8-(2-Chloro-benzenesulfonyl)-2-[6-(2,2,2-trifluoro-ethoxy)-pyridin-3-yl]-2,8-diaza-spiro[4.5]decan-1-one] |
| 40 nM | O=C1N(c2ccc(OC3CCOC3)cc2)CCC12CCN(S(=O)(=O)c1ccccc1Cl)CC2 (centres unmarked) [Example 129, 8-(2-Chloro-benzenesulfonyl)-2-[4-(tetrahydro-furan-3-yloxy)-phenyl]-2,8-diaza-spiro[4.5]decan-1-one] |
| 40 nM | O=C1N(CCc2ccc(Cl)cc2)CCC12CCN(S(=O)(=O)c1ccccc1Cl)CC2 [Example 47, 8-(2-Chloro-benzenesulfonyl)-2-[2-(4-chloro-phenyl)-ethyl]-2,8-diaza-spiro[4.5]decan-1-one] |
| 40 nM | CCCc1ccc(N2CCC3(CCN(S(=O)(=O)c4ccccc4OC(F)(F)F)CC3)C2=O)cc1 [Example 58, 2-(4-Propyl-phenyl)-8-(2-trifluoromethoxy-benzenesulfonyl)-2,8-diaza-spiro[4.5]decan-1-one] |
| 40 nM | COCCCOc1ccc(N2CCC3(CCN(S(=O)(=O)c4ccccc4OC(F)(F)F)CC3)C2=O)cc1 [Example 109, 2-[4-(3-Methoxy-propoxy)-phenyl]-8-(2-trifluoromethoxy-benzenesulfonyl)-2,8-diaza-spiro[4.5]decan-1-one] |
| 30 nM | CC(Oc1ccc(N2CCC3(CCN(S(=O)(=O)c4ccccc4OC(F)(F)F)CC3)C2=O)cn1)C(F)(F)F (centres unmarked) [Example 89, 8-(2-Trifluoromethoxy-benzenesulfonyl)-2-[6-(2,2,2-trifluoro-1-methyl-ethoxy)-pyridin-3-yl]-2,8-diaza-spiro[4.5]decan-1-one] |
| 20 nM | CN(C)c1ncccc1S(=O)(=O)N1CCC2(CCN(c3ccc(OC(F)(F)F)cc3)C2=O)CC1 [Example 190, 8-(2-Dimethylamino-pyridine-3-sulfonyl)-2-(4-trifluoromethoxy-phenyl)-2,8-diaza-spiro[4.5]decan-1-one] |
| 20 nM | O=C1N(c2ccc(OC(F)(F)F)cc2)CCC12CCN(S(=O)(=O)c1cccnc1Cl)CC2 [Example 188, 8-(2-Chloro-pyridine-3-sulfonyl)-2-(4-trifluoromethoxy-phenyl)-2,8-diaza-spiro[4.5]decan-1-one] |
